The values that follow come from patent US20250327028A1, “ENGINEERED PLATELETS AS TARGETED PROTEIN DEGRADERS” (Wisconsin Alumni Research Foundation, priority 2024, published 2025).

Assay [1] relates to 4T1 cells. Put plainly: HAC-B-mediated internalization of streptavidin in 4T1 cells. The assay is classed as cell-based, murine. To be noted: 4T1 cells pretreated 5 μM 2 h, vs cells without pretreatment. The method, then:
HAC-B-mediated internalization of streptavidin in 4T1 cells: 5×10^4 4T1 cells were seeded in a confocal dish and cultured for 24 h at 37° C. Then, the cells were treated with free HAC-B at 5 μM for 2 h. Next, the drug-containing medium was removed, and PBS was used to wash the cells twice, followed by incubating the cells in the blank medium containing streptavidin-FITC at 0.5 μM for 1 h. For cotreatment, 4T1 cells were cotreated with 5 μM HAC-B and 0.5 μM FITC-SA for 1 h. Before staining with Hoechst 33342, the cells were washed with PBS twice and fixed with 4% PFA at room temperature for 20 min. Finally, the cells were subjected to Leica SP8 Confocal WLL STED microscopy for observation.

The test system of assay [2] is HSP90. The assay can be described thus: Quantification of biotin-labeled contents in platelets (biotin quantitation kit). The assay is classed as cell-based, BALB/c mice. To be noted: 2 h. The method, then:
The fresh platelets were incubated with HAC-B at 2.5, 5, 10, 20, and 40 μM for 2 h, and the corresponding lysates were collected using the IP lysis buffer containing PMSF and phosphatase inhibitor cocktail. The biotin-labeled contents in each lysate supernatant were quantified by the QuantTag™ biotin quantitation kit, and the relevant engineering efficiency was calculated based on dividing the amount of biotin-labeled contents by the HAC-B amount added.

The test system of assay [3] is HSP90. The assay can be described thus: HAC-B-mediated HSP90 labeling, streptavidin-mediated immunoblot analysis. The format is cell-based, murine. To be noted: 4T1 cells, 2 h. As for the experimental part: Identification of HAC-B-mediated HSP90 labeling: Streptavidin-mediated immunoblot analysis: 4T1 cells were seeded in 6-well culture plates with a density of 5×10^4 cells in each well and cultured for 24 h. Following washing with PBS twice, the cells were treated with free HAC-B at the indicated concentrations for 2 h. Then, the cells were washed with PBS and lysed on ice with the RIPA buffer containing PMSF (1 mM) and the phosphatase inhibitor cocktail for 30 min. Next, the lysates were centrifuged at 10,000 g for 10 minutes at 4° C., and the corresponding supernatants were collected, followed by quantification of the total proteins in the supernatant through the BCA assay. Subsequently, the proteins in the supernatant were mixed with ¼ volume of 5× sample buffer formulated by Tris-HCl (pH 6.8, 312.5 mM), sucrose (25%), SDS (10%), bromophenol blue (0.025%), and DTT (250 mM). After incubation for 1 h at room temperature, equal amounts of proteins from different samples ([…]) were loaded into the 10% Bis-Tris gel. The separated proteins were transferred to PVDF membrane before the membranes were blocked with 5% nonfat milk in PBS-T. The PVDF membrane was incubated with streptavidin-HRP at room temperature for 2 h. […] Finally, the bands were treated with ECL western blot substrate and detected by the iBright™ imaging system.
On the technique in general: Immunoblotting shows a protein as a band on a membrane.

Assay [4] addresses T1, BRD4 (Homo sapiens, UniProt O60885).
T1 construct: endogenous in cells; host or cells: WT MDA-MB-231 (ATCC)
The assay can be described thus: Immunoblot analysis of BRD4 degradation in HSP90α-KO MDA-MB-231 cells. The assay is classed as cell-based. To be noted: 24 h. The text has this: (§1) Immunoblot analysis: Immunoblot analysis was used to evaluate the expression of BRD4, HSP90, HSP90a, and PD-L1 in 4T1, WT MDA-MB-231, HSP90α-KO MDA-MB-231 or PEA-10 cells after various treatments and also served as the detection method for IP or co-IP experiments. The procedures for preparing IP or co-IP samples were indicated in the relevant experimental parts.
(§2) Sample preparation for various cancer cells after free HAC treatment: Various cells, including 4T1, WT MDA-MB-231, HSP90α-KO MDA-MB-231, or PEA-10 cells, were seeded in 6-well culture plates with a density of 5×10^4 cells in each well and cultured for 24 h. Then, if HAI pretreatment was performed, the cells were incubated in the HAI-containing blank medium at different concentrations for 2 h and washed with PBS twice before the following treatments. […]
(§3) General procedures for immunoblot analysis: After a 30-min lysis, the lysates were centrifuged at 10,000 g for 10 minutes at 4° C., and the corresponding supernatants were collected, followed by quantification of the total proteins in the supernatant through the BCA assay. […] Finally, the bands were treated with electrochemiluminescence (ECL) western blot substrate, detected by the iBright™ imaging system and quantified with ImageJ software. […]

Assay [5] concerns the target T1, BRD4. Put plainly: Immunoblot analysis of BRD4 degradation in WT MDA-MB-231 cells after free HAC treatment. The assay is classed as cell-based.
Text: as §1
Sample preparation for various cancer cells after free HAC treatment: Various cells, including 4T1, WT MDA-MB-231, HSP90α-KO MDA-MB-231, or PEA-10 cells, were seeded in 6-well culture plates with a density of 5×10^4 cells in each well and cultured for 24 h. Then, if HAI pretreatment was performed, the cells were incubated in the HAI-containing blank medium at different concentrations for 2 h and washed with PBS twice before the following treatments. The medium in the corresponding wells was replaced with 1 mL of blank medium containing the DMSO vehicle, HACs, or the combinations of various free ligands at the predetermined concentrations. After incubation for the indicated time points, cells were washed with PBS and lysed on ice with the relevant lysis buffer containing PMSF (1 mM) and the phosphatase inhibitor cocktail for 30 min. As for the conditioned medium (CM), the culturing complete medium of the corresponding cancer cells in each well was collected after 24-h incubation and subjected to centrifugation at 2000 rpm for 5 min to obtain the supernatant. The filtrate of the supernatants was collected following filtration over a 0.45 μm filter, serving as the CM. […]
as §3

Assay [6] has as its system HSP90. Put plainly: HSP90 expression in cancer cells after iHAC treatment. The assay is classed as cell-based. To be noted: all the cancer cells, various concentrations.
Text: as §1, §2, §3

Assay [7] addresses T2, BRD4 (Mus musculus, UniProt Q9ESU6).
T2 construct: endogenous in cells; host or cells: 4T1
The assay can be described thus: Immunoblot analysis of BRD4 degradation in 4T1 cells after free HAC treatment. The format is cell-based, murine.
Text: as §1
Sample preparation for various cancer cells after free HAC treatment: Various cells, including 4T1, WT MDA-MB-231, HSP90α-KO MDA-MB-231, or PEA-10 cells, were seeded in 6-well culture plates with a density of 5×10^4 cells in each well and cultured for 24 h. Then, if HAI pretreatment was performed, the cells were incubated in the HAI-containing blank medium at different concentrations for 2 h and washed with PBS twice before the following treatments. The medium in the corresponding wells was replaced with 1 mL of blank medium containing the DMSO vehicle, HACs, or the combinations of various free ligands at the predetermined concentrations. After incubation for the indicated time points, cells were washed with PBS and lysed on ice with the relevant lysis buffer containing PMSF (1 mM) and the phosphatase inhibitor cocktail for 30 min. As for the conditioned medium (CM), the culturing complete medium of the corresponding cancer cells in each well was collected after 24-h incubation and subjected to centrifugation at 2000 rpm for 5 min to obtain the supernatant. The filtrate of the supernatants was collected following filtration over a 0.45 μm filter, serving as the CM. Regarding the cell samples for BRD4 detection, the lysis buffer containing HEPES-KOH (pH=7.5, 10 mM), NaCl (500 mM), EDTA (5 mM), NP-40 (1%), and SDS (0.1%) was used with the indicated PMSF and phosphatase inhibitor cocktail. As for PD-L1 detection, RIPA buffer (Thermo Fisher Scientific/J63306.AP) was used with the indicated PMSF and phosphatase inhibitor cocktail.
General procedures for immunoblot analysis: After a 30-min lysis, the lysates were centrifuged at 10,000 g for 10 minutes at 4° C., and the corresponding supernatants were collected, followed by quantification of the total proteins in the supernatant through the BCA assay. Afterward, the proteins in the supernatant were mixed with the loading buffer and heated at 95° C. for 15 min. Equal amounts of proteins from different samples ([…]) were loaded into the Bis-Tris gel formulated with Bis-Tis buffer, 30% acrylamide/Bis, 10% ammonium persulfate (APS) solution, and TEMED. The separated proteins were transferred to polyvinylidene fluoride (PVDF) membranes before the membranes were blocked with 5% nonfat milk in PBS-T. Next, the PVDF membranes were incubated with primary antibodies overnight at 4° C., if necessary, followed by the incubation with the goat-anti-rabbit IgG H & L (HRP) secondary antibodies at room temperature for 2 h. Finally, the bands were treated with electrochemiluminescence (ECL) western blot substrate, detected by the iBright™ imaging system and quantified with ImageJ software. 8% Bis-Tris gels were used for BRD4 detection, and 10% gels were adopted to analyze PD-L1.

On to `N#CCN(C(=O)CCCC[C@@H]1SC[C@@H]2NC(=O)N[C@@H]21)S(=O)(=O)c1ccc(C(=O)NCCCn2c(Sc3cc4c(cc3I)OCO4)nc3c(N)ncnc32)cc1` [HAC-B, N-(3-(6-amino-8-((6-iodobenzo[d][1,3]dioxol-5-yl)thio)-9H-purin-9-yl)propyl)-4-(N-(cyanomethyl)-N-(5-((3aS,4S,6aR)-2-oxohexahydro-1H-thieno[3,4-d]imidazol-4-yl)pentanoyl)sulfamoyl)benzamide], for which, in assay [1], the “internalization of streptavidin-FITC” value was “much stronger green fluorescence signals”. Moreover, in assay [2], the “HAC-B concentration at which biotin-labeled content inside platelets reaches a peak” value turned out to be 20 µM. The “concentration that labels HSP90 with higher efficiency” value in assay [3] is on record as “over 0.8 μM”. For the same molecule, in assay [3] (various concentrations), the “biotin labeling of HSP90 (detected by HRP-streptavidin)” value was “modified HSP90 within 2 h in a concentration-dependent manner”.
Turning to `Cc1sc2c(c1C)C(c1ccc(Cl)cc1)=N[C@@H](CC(=O)NCc1cn(CCCC(=O)N(CC#N)S(=O)(=O)c3ccc(C(=O)NCCCn4c(Sc5cc6c(cc5I)OCO6)nc5c(N)ncnc54)cc3)nn1)c1nnc(C)n1-2` [iHAC, (S)—N-(3-(6-amino-8-((6-iodobenzo[d][1,3]dioxol-5-yl)thio)-9H-purin-9-yl)propyl)-4-(N-(4-(4-((2-(4-(4-chlorophenyl)-2,3,9-trimethyl-6H-thieno[3,2-f][1,2,4]triazolo[4,3-a][1,4]diazepin-6-yl)acetamido)methyl)-1H-1,2,3-triazol-1-yl)butanoyl)-N-(cyanomethyl)sulfamoyl)benzamide], in assay [4], the “remaining BRD4 degradation potency” value is recorded as “partially maintains the degradation potency”. Besides, the “effect of HSP90α deficiency on BRD4 degradation efficacy” value in assay [4] (lower and higher concentration ranges) is given as “substantially compromised the BRD4 degradation efficacy”. Further, the “shape of concentration response of BRD4 degradation” value in assay [5] (at relatively lower concentrations, reversed at 20 μM) is reported as “hook effect”; in assay [7] (4T1 cells, at relatively lower concentrations, reversed at 20 μM) it was “hook effect”. The “time dependence of BRD4 downregulation” value in assay [5] (at the two effective concentrations) is reported as “in a time-dependent manner”; in assay [7] (4T1 cells, at the two effective concentrations) it was “in a time-dependent manner”. Besides, the HSP90 expression entry in assay [6] is “maintained a relatively stable HSP90 expression”. For the same molecule, the “BRD4 degradation in presence of proteasome inhibitor epoxomicin (Epox)” value in assay [7] (4T1 and WT MDA-MB-231 cells (FIGS. 2K, 2L), lower or higher effective concentrations) is listed as “rescue effect induced by proteasome inhibitor epoxomicin (Epox)”. In addition, in assay [7] (4T1 cells, 24 h), the “higher effective concentration that efficiently reduces BRD4 expression” value is 20 µM. Besides, the “lower effective concentration that efficiently reduces BRD4 expression” value in assay [7] (4T1 cells, 24 h) was determined as 0.16 µM.
